“Also recorded” adds a separate entry of the source. Read-outs that look alike come from different tables or passages of the source.

The test system of series [1] is 11 genes (CCNA2, CCNB1, CCNB2, PRC1, SMC2, DLGAP5, ECT2, FBXO5, CDK1, NCAPG, KIF4A). The series is described as follows: qRT-PCR of the 11 genes in cell lines and PDX organoids after drug treatment. It is filed as cell-based, human. The conditions noted are these: for expression of the 11 genes (qRT-PCR): 22Rv1 and LNCaP parental/AbiRes cells, organoids MC-PRX-01 and MC-PRX-05, alone or with Abi. Here is the method: Total RNA for qRT-PCR was extracted from tumor organoids or cell lines using Quick-RNA MiniPrep Kit (Zymo Research, Irvine, CA) according to the manufacturer's instructions. qRT-PCR was performed using the Power SYBR® Green RNA-to-CT 1-Step Kit (Life Technologies, Grand Island, NY) and QuantiTect® (QIAGEN, Germantown, MD) or PrimeTime® (IDT, Inc., Coralville, Iowa) pre-designed qPCR primers (IDT Coralville, IA). Gene expression analyses were performed using ΔΔCt method, and β-actin was used as the internal reference. Three independent experiments were performed. Primer sequences are in Table 1.

The next series has as its system MC-PRX-01 PDX tumor. The series is described as follows: MC-PRX-01 PDX model treated with abiraterone ± palbociclib/PHA-793887, 35 days. It is filed as in vivo, mice. Here is the method: All patient specimens were collected as part of the PROMOTE study as described elsewhere (see, for example, Champoux. Annu. Rev. Biochem., 70, 369-413 (2001); and Kellner et al., Lancet Oncol., 3, 235-243 (2002)). Briefly, pathology confirmed metastatic tumor biopsy tissues of mCRPC was renal capsule xenografted and 25 mg testosterone pellet was subcutaneously implanted into 6-8 weeks old male CB17 NOD-SCID mice (Jackson laboratories, Bar Harbor, Maine; Charles River Laboratories, Raleigh, North Carolina) and observed for at least 6 months or till the tumor reached 1.0-1.5 cm at maximal length, when sub-xenografts were expanded by subcutaneous implantation with harvested PDX tumor mixed with Matrigel (Corning, Corning, New York) with no exogenous testosterone supplied. Early generation PDX tumors were collected for cryo-storage and next-generation sequencing. Pathology confirmed PDX model generated from AA/P non-responder bone metastatic tumor biopsy tissues were employed to test the in vivo tumor response to abiraterone+Mito/Dox/Palb/PHA. After PDX tumor reached approximately 100 mm3, mice were randomized to 6 groups. […] Body weight and tumor volumes (width^2×length/2) were measured two to three times per week with a digital caliper, and the average tumor volumes were determined. At the end of the treatment period, mice were euthanized and the tumors were removed, dissected and frozen at −80° C. for further analysis.

For series [2], the system named is 22Rv1 parental and 22Rv1-AbiRes cells. The series is described as follows: Cytotoxicity and proliferation assay (Cyquant direct assay), 22Rv1 parental and AbiRes. It is filed as cell-based, human. As to conditions: single treatment preliminary experiments, concentration used in combination with Abi (FIG. 6A), read-out: Concentrations corresponding to IC50 of each drug. The procedure: (§1) 22Rv1 and LNCaP cells purchased from ATCC were routinely cultured in RPMI1640 medium (Gibco, Grand Island, NY) supplemented with 10% FBS (Atlanta Biologicals, Flowery Branch, GA) and 1% Pen-Strep. […] Abi resistant cells (LNCaP-AbiRes or 22Rv1-AbiRes) were compared with parental cells for viability and gene expression after Abi and other treatments.
(§2) Forty eight hours before abiraterone treatment, cell was seeded in phenol red-free RPMI (Gibco, Grand Island, NY) supplemented with 10% charcoal stripped FBS (Thermo Fisher Scientific, Waltham, MA), and 50 nM pregnenolone was added after 24 hours.

Series [3] concerns LNCaP parental and LNCaP-AbiRes cells. The series is described as follows: Cytotoxicity and proliferation assay (Cyquant direct assay), LNCaP parental and AbiRes. The class given is cell-based, human. The conditions noted are these: for IC50: LNCaP, single treatment preliminary experiments, concentration used in combination with Abi (FIG. 6B), except PD-0325901, read-out: Concentrations corresponding to IC50 of each drug. Here is the method:
as §1, §2

The test system of series [4] is 11 genes in MC-PRX-01 and MC-PRX-06 PDX tumors. The series is described as follows: qRT-PCR of the 11 genes in post treatment PDX tumors. It is filed as in vivo, mice. As to conditions: MC-PRX-01 and MC-PRX-06 tumors harvested after treatment.
The subject of series [5] is PDX organoids MC-PRX-01 and MC-PRX-05. The series is described as follows: PDX derived organoid culture and cytotoxicity assay (3D cell titer).
Series [6] has as its system metastatic / castration-resistant prostate cancer. As to conditions: patients, literature; cited from earlier work.

As for `CC(C)CC(=O)Nc1n[nH]c2c1CN(C(=O)C1CCN(C)CC1)C2(C)C` [PHA-793887], the “expression of the 11 genes (qRT-PCR)” value in series [1] is “less consistency in the suppression”. Moreover, in the series on MC-PRX-01 PDX tumor (35 days), the tumor growth result is reported as “inhibited tumor growth”. In the series on MC-PRX-01 PDX tumor (35 days, tested dosage), the “tumor growth inhibition as single treatment” value was “did not exhibit statistically significant inhibition”. For the same molecule, the “sensitization of the tumor to Abi treatment” value in the series on MC-PRX-01 PDX tumor (combination with Abi) is “sensitize the tumor to Abi treatment”. Also, the IC50 in series [2] and in series [3] was 100 nM throughout.

Turning to `O=C1c2c(O)ccc(O)c2C(=O)c2c(NCCNCCO)ccc(NCCNCCO)c21` [mitoxantrone], the “expression of the 11 genes in PDX tumors after treatment (qRT-PCR)” value in series [4] is “significantly downregulated”. Also, in series [1], the “expression of the 11 genes (qRT-PCR)” value is recorded as “most consistently suppressed the expression of the 11 genes; also recorded: more significant effects on the 11 gene suppression”. In series [1] (LNCaP AbiRes vs parental), the “suppression of the 11 genes in LNCaP Abi-resistant cells compared to parental cells” value is “better suppression effects”. Besides, the “potency relative to the other identified drugs in cytotoxicity experiments” value in series [5] (range of doses tested, FIG. 6) is given as “superior to others; also recorded: most potent”. In addition, in series [3] (Homo sapiens), the IC50 was 10 nM.

With `CC(=O)O[C@H]1CC[C@@]2(C)C(=CC[C@@H]3[C@@H]2CC[C@]2(C)C(c4cccnc4)=CC[C@@H]32)C1` [abiraterone acetate], the overall survival entry in series [6] is listed as “extend overall survival significantly”.

As for `O=C(NOC[C@H](O)CO)c1ccc(F)c(F)c1Nc1ccc(I)cc1F` [PD-0325901, mirdametinib], the “expression of the 11 genes (qRT-PCR)” value in series [1] is on record as “less consistency in the suppression”. Further, in series [3] (LNCaP harbors a Q56P mutation), the “response of LNCaP cells to the MEK inhibitor” value is recorded as “conferring resistance to this MEK inhibitor”.

In the case of `C[C@]12CC[C@H](O)CC1=CC[C@@H]1[C@@H]2CC[C@]2(C)C(c3cccnc3)=CC[C@@H]12` [abiraterone], the “inhibition of organoid growth” value in series [5] (abiraterone alone at the highest tested concentration, MC-PRX-01 and MC-PRX-05 organoids) is “less than 10%”.

In the case of `COc1cccc2c1C(=O)c1c(O)c3c(c(O)c1C2=O)C[C@@](O)(C(=O)CO)C[C@@H]3O[C@H]1C[C@H](N)[C@H](O)[C@H](C)O1` [doxorubicin], the “expression of the 11 genes in PDX tumors after treatment (qRT-PCR)” value in series [4] is given as “significantly downregulated”.

The values are drawn from US20240307414A1, “METHODS AND MATERIALS FOR TREATING PROSTATE CANCER” (Mayo Foundation for Medical Education and Research, priority 2020, published 2024).
